Here are results for 20 compounds from ChEMBL document CHEMBL3763055, “Evaluation of synthetic coumarins for antiausterity cytotoxicity against pancreatic cancers” (Bioorg Med Chem Lett, 2016).

Data set [1] can be described thus: Cytotoxicity against human PANC1 cells in DMEM assessed as reduction in cell viability at 100 uM incubated for 24 hrs by WST-8 assay. The data set is classed as cell-based. Conditions: panc-1, 24 h.
Data set [2] can be described thus: Antiausterity activity against human PANC1 cells under nutrient deprived condition assessed as reduction in cell viability incubated for 24 hrs by WST-8 assay. The data set is classed as functional, PANC-1.
Data set [3] can be described thus: Antiausterity activity against human Capan1 cells under nutrient deprived condition assessed as reduction in cell viability incubated for 24 hrs by WST-8 assay. The data set is classed as functional, CAPAN-1.
Data set [4] is described as follows: Antiausterity activity against human MIAPaCa2 cells under nutrient deprived condition assessed as reduction in cell viability incubated for 24 hrs by WST-8 assay. The data set is classed as functional, MIA PaCa-2.
In another data set the test system is PANC-1. Description: Induction of apoptosis in human PANC1 cells under nutrient deprived condition at 50 uM after 24 hrs by ethidium bromide/acridine orange staining based fluorescence microscopy. The data set is classed as functional, cell-based.

The source made the active and inactive calls. The rule behind the calls is not given here.

As to `O=c1ccc2ccc(OCc3cn(Cc4ccccc4)nn3)cc2o1`, in data set [1], the Activity entry was “Non-toxic”. For the same compound, in data set [2], the PC50 was greater than 100 µM.

On to `CC(C)(CC(=O)/C=C/c1cccc(C(F)(F)F)c1)C1Cc2c(ccc3ccc(=O)oc23)O1` (configuration not stated), for which the PC50 in data set [2] is 0.079 µM.

`CCCCCCCCCCCCOc1ccc2c(C)cc(=O)oc2c1`: the Activity result in data set [1] was “Non-toxic”. The PC50 in data set [2] was greater than 100 µM.

On to `CC(C)=CCC/C(C)=C/COc1cc2ccc(=O)oc2cc1O`, for which, in data set [2], the PC50 turned out to be 7.2 µM.

For `CCCCCCCCn1cc(COc2ccc3ccc(=O)oc3c2)nn1`, the Activity entry in data set [1] is on record as “Non-toxic”. Also, in data set [2], the PC50 was greater than 100 µM.

Consider `CC(C)c1ccc(Cn2cc(COc3ccc4ccc(=O)oc4c3)nn2)cc1`, for which the Activity entry in data set [1] is recorded as “Non-toxic”. Besides, the PC50 in data set [2] was greater than 100 µM.

On to `O=c1ccc2ccc(OCc3cn(Cc4ccc(C(F)(F)F)cc4)nn3)cc2o1`, for which the PC50 was greater than 100 µM in data set [3], 9.6 µM in data set [4] and greater than 100 µM in data set [2]. Besides, the Activity entry in data set [1] was “Non-toxic”.

Consider `CCCCCCCCCCCCOc1ccc2c(CC)cc(=O)oc2c1`, for which the Activity entry in data set [1] is reported as “Non-toxic”. In addition, in data set [2], the PC50 was determined as 51 µM.

Regarding `CCCCCCCCCCCCCCCCOc1ccc2c(C(F)(F)F)cc(=O)oc2c1`, in data set [1], the Activity result is listed as “Non-toxic”. Further, in data set [2], the PC50 was greater than 100 µM.

On to `CCCCCCCCOc1ccc2c(CC)cc(=O)oc2c1`, for which the Activity result in data set [1] was “Non-toxic”. Besides, the PC50 in data set [2] came out at 29 µM.

Regarding `CCCCCCCCCCCCCCOc1ccc2c(C)cc(=O)oc2c1`, in data set [1], the Activity result is given as “Non-toxic”. The PC50 in data set [2] is greater than 100 µM.

Regarding `CCCCCCCCCCCCCCCCOc1ccc2c(C(F)(F)F)cc(=O)oc2c1C`, the Activity result in data set [1] is recorded as “Non-toxic”. In data set [2], the PC50 was greater than 100 µM.

As for `CCCCCCCCCCCCOc1ccc2c(C(F)(F)F)cc(=O)oc2c1C`, the Activity result in data set [1] was “Non-toxic”. For the same compound, the PC50 in data set [2] is greater than 100 µM.

Turning to `COc1ccc(Cn2cc(COc3ccc4ccc(=O)oc4c3)nn2)cc1`, the Activity result in data set [1] was “Non-toxic”. Also, the PC50 in data set [2] was greater than 100 µM.

For the compound `CC(C)(CC(=O)/C=C/c1ccc(C(F)(F)F)cc1)C1Cc2c(ccc3ccc(=O)oc23)O1` (configuration not stated), the PC50 in data set [2] was 0.023 µM.

Turning to `CCCCCCCCOc1ccc2c(C(F)(F)F)cc(=O)oc2c1`, in data set [1], the Activity result is “Non-toxic”. The PC50 in data set [2] was 63 µM.

As for `CCCCCCCCOc1ccc2c(C)cc(=O)oc2c1C`, the Activity result in data set [1] is given as “Non-toxic”. The PC50 in data set [2] is greater than 100 µM.

Take `Cc1cc(=O)oc2cc(OCC3CC3)ccc12`: the Activity result in data set [1] was “Non-toxic”. The PC50 in data set [2] is greater than 100 µM.

Turning to `CCCCCCCCOc1ccc2c(C)cc(=O)oc2c1`, the Activity result in data set [1] is given as “Non-toxic”. The PC50 in data set [2] stood at 48 µM.

In the case of `O=c1ccc2ccc(OCc3cn(Cc4cccc(C(F)(F)F)c4)nn3)cc2o1`, the figures for the PC50 in data set [3], in data set [4] and in data set [2] were 18 µM, 8.5 µM and 29 µM, respectively. In addition, the result with PANC-1 was Active. The Activity result in data set [1] is reported as “Non-toxic”.
